Assay results taken from article PMC12554172, “Systematic analysis of the RGS2 degron reveals characteristics of substrate recognition by the F-box protein FBXO44” (The Journal of Biological Chemistry, 2025).
Peptide text beside a SMILES is read from it.

Columns and labels:
[1] = biological target: T1, FBXO44^FBA (Homo sapiens, UniProt Q9H4M3); test: Dot blot of FLAG-FBXO44^FBA binding to immobilized peptide; settings: peptide spotted on PVDF at increasing amounts; 2 μg/ml FLAG-FBXO44^FBA overnight at 4 °C; anti-FLAG
T1 construct: we expressed and purified only this domain for all in vitro studies; 6xHis (N, cleaved yes); MBP (N, cleaved yes); made in house; host or cells: Escherichia coli Rosetta BL21 (λDE3)
T1 sequence (Q9H4M3 71-252 limits assumed): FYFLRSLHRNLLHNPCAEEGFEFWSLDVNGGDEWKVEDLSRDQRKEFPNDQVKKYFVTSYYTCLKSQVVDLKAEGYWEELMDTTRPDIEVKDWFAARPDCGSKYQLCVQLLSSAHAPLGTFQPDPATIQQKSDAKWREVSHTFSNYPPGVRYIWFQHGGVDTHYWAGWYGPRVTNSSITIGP
Excerpt: (§1) However, evidence of a direct interaction between RGS2 and FBXO44 has, until now, not yet been established. Thus, we first aimed to verify that purified FBXO44 would bind the degron sequence in vitro. […] This also circumvented the issue that full-length FBXO44 (as well as all other F-box proteins) is very difficult to express in the absence of an adaptor protein, such as Skp1 ([30]). To test the ability of the FBA domain to bind the RGS2 degron specifically, a peptide corresponding to residues Met^5–Met^16 (MFLAVQHDRCPM; herein referred to as RGS2^5–16; Fig. 1A) was dotted onto a polyvinylidene difluoride (PVDF) membrane at increasing amounts (Fig. 1B). […] The membrane was then incubated with FLAG-tagged FBXO44 FBA domain (FBXO44^FBA) and subjected to immunoblotting using a FLAG antibody. […] To get an estimate of the binding affinity between FBXO44^FBA, we next performed surface plasmon resonance (SPR) with the RGS2^5–16 peptide anchored on the chip and FBXO44^FBA as the analyte.
Figure 1 A peptide representing the degron in RGS2 binds FBXO44^FBAin vitro.A, sequence and schematic of the RGS2^5–16 peptide. B, a representative dot blot showing binding of FBXO44^FBA to immobilized RGS2^5–16 peptide. […] The RU at equilibrium was subtracted from the nonspecific binding detected in Fc1 and measured for each concentration. […]

[2] = biological target: T1, FBXO44^FBA; test: Surface plasmon resonance, immobilized RGS2^5–16 peptide; settings: Biacore X100; peptide immobilized on CM5 chip by amine coupling; FBXO44^FBA analyte 0.29–75 μM, contact time 60 s; nonlinear fit of saturation binding; preliminary
Excerpt: as §1
RGS2^5–16 peptide was immobilized onto a CM5 chip (Cytiva; BR100012) using amine coupling (Cytiva; BR100557) following the manufacturer's protocol. RGS2^5–16 peptide (150 μg/ml) in 10 mM NaOAc, pH 4.0, was loaded into the Biacore X100 sample rack. […] The RU at equilibrium was subtracted from the nonspecific binding detected in Fc1 and measured for each concentration. […]

Compound	FLAG immunoreactivity (FBXO44^FBA binding) [1]	Kd [2] [µM]
MCKGLAALPAT [RGS4^1–11, peptide corresponding to the first 11 residues in RGS4, negative control]	no signal detected	
CSCC[C@H](NC(=O)[C@@H]1CCCN1C(=O)[C@H](CCCNC(=N)N)NC(=O)[C@H](CS)NC(=O)[C@H](CC(=O)O)NC(=O)[C@H](Cc1c[nH]cn1)NC(=O)[C@H](CCC(N)=O)NC(=O)[C@@H](NC(=O)[C@H](C)NC(=O)[C@H](CC(C)C)NC(=O)[C@H](Cc1ccccc1)NC(=O)[C@@H](N)CCSC)C(C)C)C(=O)O [RGS2^5–16] (H-MFLAVQHDCRPM-OH)		2.09
